This is an account of results in patent US5356916A, “1,2,4-oxadiazole derivatives having monoamine oxidase B enzyme-inhibitory activity” (Wakamoto Pharmaceutical Co., Ltd., priority 1991, dated 1994).

Where two headings read alike, the source gives them in different places.

In test [1] the test system is Parkinson's disease. The settings on record: United States and Europe; cited from earlier work.
Test [2] has as its target T1, MAO-A (Rattus norvegicus, UniProt P21396).
T1 construct: mitochondria prepared from the liver of rats; from tissue; host or cells: rat liver mitochondria
T1 sequence (P21396 1-526): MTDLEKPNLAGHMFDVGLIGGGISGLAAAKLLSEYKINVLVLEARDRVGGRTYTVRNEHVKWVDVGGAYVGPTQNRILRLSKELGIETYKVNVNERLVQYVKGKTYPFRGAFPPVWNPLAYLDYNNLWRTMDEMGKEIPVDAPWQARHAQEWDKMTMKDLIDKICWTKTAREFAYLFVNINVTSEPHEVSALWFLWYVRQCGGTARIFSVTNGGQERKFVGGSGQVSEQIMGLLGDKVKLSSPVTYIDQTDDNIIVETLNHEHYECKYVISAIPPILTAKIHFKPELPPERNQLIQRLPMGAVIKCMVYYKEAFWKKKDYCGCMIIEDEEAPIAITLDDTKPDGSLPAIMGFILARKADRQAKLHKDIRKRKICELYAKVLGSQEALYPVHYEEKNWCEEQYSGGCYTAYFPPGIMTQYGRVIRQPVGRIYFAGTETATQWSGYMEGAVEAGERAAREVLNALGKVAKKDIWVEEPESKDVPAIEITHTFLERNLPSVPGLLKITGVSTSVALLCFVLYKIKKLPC
Put plainly: In vitro inhibition of monoamine oxidase A (oxygen electrode, rat liver mitochondria, substrate serotonin). The format is biochemical. Here is the method: (§1) The MAO-inhibitory activity of the compounds of the present invention was determined according to an MAO-inhibitory activity determining method using the oxygen electrode disclosed in K. F. Tipton et al., Biochem. J., 1968,108, pp. 95-99.
(§2) A potassium phosphate buffer solution of mitochondria prepared from the liver of rats was preincubated at 37° C. with or without a compound of the present invention and then a substrate was added to the mixture to thus initiate the reaction at that temperature while the dissolved oxygen-consuming reaction due to MAO activity in the reaction solution was monitored by the oxygen electrode. In this respect, the substrates used were serotonin (5-HT) for the MAO-A activity determination and benzylamine (BA) for the MAO-B activity determination. The MAO-inhibitory activity was evaluated in terms of an IC5.sbsb.0 value which is the concentration of a compound tested required for reducing the rate of oxygen-consuming reaction performed in the presence of the compound to 50% of that of the reaction performed in the absence of the compound.

The target of test [3] is T2, MAO-B (Rattus norvegicus, UniProt P19643).
T2 construct: mitochondria prepared from the liver of rats; from tissue; host or cells: rat liver mitochondria
T2 sequence (P19643 1-520): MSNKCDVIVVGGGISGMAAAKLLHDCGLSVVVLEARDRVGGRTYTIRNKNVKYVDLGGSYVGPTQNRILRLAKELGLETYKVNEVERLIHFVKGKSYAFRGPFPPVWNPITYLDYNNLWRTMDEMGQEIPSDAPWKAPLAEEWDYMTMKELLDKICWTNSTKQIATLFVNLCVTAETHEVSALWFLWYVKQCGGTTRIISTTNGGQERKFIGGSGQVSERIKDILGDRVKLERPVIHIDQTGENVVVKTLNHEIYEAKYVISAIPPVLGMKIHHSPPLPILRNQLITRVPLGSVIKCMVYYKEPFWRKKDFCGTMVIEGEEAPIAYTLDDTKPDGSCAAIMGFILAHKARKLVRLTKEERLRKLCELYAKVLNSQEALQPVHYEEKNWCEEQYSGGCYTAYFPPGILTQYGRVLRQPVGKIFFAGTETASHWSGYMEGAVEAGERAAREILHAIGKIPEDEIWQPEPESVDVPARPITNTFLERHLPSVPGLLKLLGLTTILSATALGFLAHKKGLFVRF
Put plainly: In vitro inhibition of monoamine oxidase B (oxygen electrode, rat liver mitochondria, substrate benzylamine). The format is biochemical. To be noted: for MAO-A/MAO-B: ratio of IC50 values MAO-A/MAO-B. Here is the method:
as §1, §2

[4] abbreviates: rat liver mitochondria, 37° C., preincubated, substrate serotonin (5-HT), read-out: IC50 MAO-A.
The mark [5] stands for this setting: rat liver mitochondria, 37° C., preincubated, substrate benzylamine (BA), read-out: IC50 MAO-B.

For orientation: IC50 means the concentration that inhibits the measured activity by half.

Consider `C#CCN(C)C(C)Cc1ccccc1` (racemic) [d,l-Deprenil], for which the “clinical effectiveness in Parkinson's disease (in words)” value in test [1] is “effectiveness of this compound has clinically been proved”.
Regarding `CCc1nc(-c2ccc(OCCCc3ccccc3)cc2)no1` [Example 15, 3-[4-(3-phenylpropoxy)phenyl]-5-ethyl-1,2,4-oxadiazole], the IC50 in test [2] (setting [4]) and in test [3] (setting [5]) was 200 µM each time. Besides, the MAO-A/MAO-B in test [3] was found to be 1.
As to `CCCOc1ccc(-c2noc(CC)n2)cc1` [Example 16, 3-(4-propoxy)phenyl-5-ethyl-1,2,4-oxadiazole], the IC50 in test [2] (setting [4]) worked out at 48 µM; in test [3] (setting [5]), 10 µM. In addition, the MAO-A/MAO-B in test [3] amounted to 4.8.
Consider `O=C1CCCN1CCCOc1ccc(-c2noc(-c3ccccc3)n2)cc1` [Example 17, 3-[4-[3-(2-oxopyrrolidin-1-yl)propoxy]phenyl]-5-phenyl-1,2,4-oxadiazole], for which the IC50 in test [2] (setting [4]) and in test [3] (setting [5]) was 100 µM each time. The MAO-A/MAO-B in test [3] turned out to be 1.
In the case of `CCc1nc(-c2ccc(OCCn3ccnc3)cc2)no1` [Example 18, 3-[4-[2-(1H-imidazol-1-yl)ethoxy]phenyl]-5-ethyl-1,2,4-oxadiazole], the IC50 in test [2] (setting [4]) was 90 µM; in test [3] (setting [5]), 60 µM. Also, the MAO-A/MAO-B in test [3] is recorded as 1.5.
With `CCc1nc(-c2ccc(OCc3ccccc3)cc2)no1` [Example 19, 3-(4-benzyloxy)phenyl-5-ethyl-1,2,4-oxadiazole], the IC50 was 100 µM in test [2] (setting [4]) and 8 µM in test [3] (setting [5]). For the same compound, the MAO-A/MAO-B in test [3] was 13.
On to `ClC(Cl)(Cl)c1nc(-c2ccc(OCc3ccccc3)cc2)no1` [Example 20, 3-(4-benzyloxy)phenyl-5-trichloromethyl-1,2,4-oxadiazole], for which the midpoint of inhibition in test [2], the IC50, lay at 100 µM. Moreover, in test [3], the IC50 turned out to be 9.5 µM and the MAO-A/MAO-B is reported as 11.
`FC(F)(F)c1nc(-c2ccc(OCCCn3ccnc3)cc2)no1` [Example 21, 3-[4-[3-(1H-imidazol-1-yl)propoxy]phenyl]-5-trifluoromethyl-1,2,4-oxadiazole]: the IC50 amounted to 200 µM in test [2] (setting [4]) and 0.03 µM in test [3] (setting [5]). In addition, the MAO-A/MAO-B in test [3] is given as 6700.
Turning to `FC(F)(F)C(F)(F)c1nc(-c2ccc(OCCCn3ccnc3)cc2)no1` [Example 22, 3-[4-[3-(1H-imidazol-1-yl)propoxy]phenyl]-5-penta-fluoroethyl-1,2,4-oxadiazole], the IC50 in test [2] (setting [4]) was found to be 100 µM; in test [3] (setting [5]) it was 0.09 µM. For the same compound, the MAO-A/MAO-B in test [3] is 1100.
In test [2], `FC(F)(F)C(F)(F)C(F)(F)c1nc(-c2ccc(OCCCn3ccnc3)cc2)no1` [Example 23, 3-[4-[3-(1H-imidazol-1-yl)propoxy]phenyl]-5-hepta-fluoropropyl-1,2,4-oxadiazole] registered an IC50 of 100 µM. For the same compound, in test [3], the IC50 turned out to be 4.7 µM and the MAO-A/MAO-B is 21.
As to `Cc1nc(-c2ccc(OCCCn3ccnc3)cc2)no1` [Example 24, 3-[4-[3-(1H-imidazol-1-yl)propoxy]phenyl]-5-methyl-1,2,4-oxadiazole], the IC50 in test [2] (setting [4]) turned out to be 550 µM; in test [3] (setting [5]) it was 2.4 µM. In test [3], the MAO-A/MAO-B stood at 230.
As for `CCCN(CCC)CCCOc1ccc(-c2noc(C)n2)cc1` [Example 25, 3-[4-(3-dipropylaminopropoxy)phenyl]-5-methyl-1,2,4-oxadiazole], the IC50 in test [2] (setting [4]) stood at 100 µM; in test [3] (setting [5]), 1 µM. Besides, in test [3], the MAO-A/MAO-B is 100.
For the compound `Cc1nc(-c2ccc(OCc3cccnc3)cc2)no1` [Example 26, 3-(4-(3-pyridylmethyloxy)phenyl]-5-methyl-1,2,4-oxadiazole], the IC50 in test [2] (setting [4]) is 100 µM; in test [3] (setting [5]), 30 µM. For the same compound, the MAO-A/MAO-B in test [3] came out at 3.3.
For `Cc1nc(-c2ccc(OCc3ccncc3)cc2)no1` [Example 27, 3-[4-(4-pyridylmethyloxy)phenyl]-5-methyl-1,2,4-oxadiazole], the IC50 was found to be 160 µM in test [2] (setting [4]) and 25 µM in test [3] (setting [5]). For the same compound, the MAO-A/MAO-B in test [3] came to 6.4.
Consider `CCCOc1ccc(-c2noc(C)n2)cc1` [Example 28, 3-(4-propoxy)phenyl-5-methyl-1,2,4-oxadiazole], for which the values for the IC50 in test [2] (setting [4]) and in test [3] (setting [5]) were 18 µM and 25 µM, respectively. In test [3], the MAO-A/MAO-B amounted to 0.7.
Take `Cc1nc(-c2ccc(OCCCc3ccccc3)cc2)no1` [Example 29, 3-[4-(3-phenylpropoxy)phenyl]-5-methyl-1,2,4-oxadiazole]: the IC50 in test [2] (setting [4]) was 110 µM; in test [3] (setting [5]), 22 µM. Also, in test [3], the MAO-A/MAO-B is 5.
For `Cc1nc(-c2ccc(OCc3ccccc3)cc2)no1` [Example 30, 3=(4-benzyloxy)phenyl-5-methyl-1,2,4-oxadiazole], the figures for the IC50 in test [2] (setting [4]) and in test [3] (setting [5]) were 50 µM and 4.8 µM, respectively. The MAO-A/MAO-B in test [3] is 10.
The corresponding values for `Cc1nc(-c2ccc(OCc3cccc(Cl)c3)cc2)no1` [Example 31, 3-[4-(3-chlorobenzyloxy)phenyl]-5-methyl-1,2,4-oxadiazole] are 200 µM, 3 µM and 67.
Take `CNc1nc(-c2ccc(OCCCn3ccnc3)cc2)no1` [Example 32, 3-[4-[3-(1H-imidazol-1-yl)propoxy]phenyl]-5-methyl-amino-1,2,4-oxadiazole]: the values for the IC50 in test [2] (setting [4]) and in test [3] (setting [5]) were 110 µM and 1.2 µM, respectively. For the same compound, in test [3], the MAO-A/MAO-B is 92.
For `CNc1nc(-c2ccc(OCc3ccccc3)cc2)no1` [Example 33, 3-(4-benzyloxyphenyl)-5-methylamino-1,2,4-oxadiazole], in that order: 100 µM, 7 µM and 14.
